This passage reports GI50 and TGI results from PubChem BioAssay (NCI).

Each structure is given as a SMILES string. Several values for one entry are separate records, joined by “and”; a condition that tells them apart may be missing. Equal values may be shown once.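 Method: 48-hour compound exposure of cells in 96-well plates, five concentrations, linear interpolation of endpoints. Here, GI50 denotes the concentration required for 50% inhibition of growth. TGI denotes the concentration required for complete inhibition of growth.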 Where only a bound is given, the exact number is not on record here.

Common to all, as to test: growth of human tumour cells (NCI), 48 h
In assay [1] the test system is UACC-62 melanoma.
Assay [2] deals with M14 melanoma.
The test system of assay [3] is T-47D breast.
The subject of assay [4] is HS 578T breast.
Assay [5] has as its system HCT-116 colon.
Assay [6] has as its system MDA-MB-435.
Assay [7] has as its system ACHN renal.
Assay [8] concerns NCI/ADR-RES ovarian.
In assay [9] the test system is SK-MEL-2 melanoma.
Assay [10] deals with K-562 leukemia.

With `C/C(=N/Nc1nc2ccccc2n1C)c1ccccn1`, the GI50 was 0.14 µM in [1]; 0.0489 µM in assay [2]; under 0.0144 µM in assay [3]; 0.287 µM in assay [4]; 0.229 µM in assay [6]; 0.0136 µM in [7]. Moreover, the GI50 in [8] is 0.0364 µM; in [9] it was 0.706 µM; in assay [10] it was 0.0173 µM. In addition, the TGI in assay [1] was found to be 0.793 µM; in [2], 0.285 µM; in assay [3], 11.6 µM; in assay [4], 25.6 µM; in assay [5], 14.8 µM; in [6] it was 20.7 µM. In addition, the TGI was 7.7 µM in assay [7], 0.555 µM in [8], 22.3 µM in [9] and over 100 µM in assay [10].

Consider `C#CCC(Cc1cnc2nc(N)nc(N)c2n1)c1ccc(C(=O)N[C@@H](CCC(=O)O)C(=O)O)cc1` (stereo partly specified), for which the GI50 was under 0.01 µM in assay [1]; under 0.01 µM in [2]; over 100 µM in assay [3]; over 100 µM in assay [4]; under 0.01 µM in assay [5]; under 0.01 µM in assay [6]. The GI50 is under 0.01 µM in [7], under 0.01 µM in [8], over 100 µM in assay [9] and under 0.01 µM in assay [10]. Besides, the TGI in assay [1], in assay [2], in assay [3], in [4], in [5] and in assay [6] was over 100 µM in each case. Moreover, the TGI in assay [7], in assay [8], in assay [9] and in assay [10] was over 100 µM throughout.

As for `CCC(CO)Nc1nc(NCc2ccccc2O)c2ncn(C(C)C)c2n1` (stereo unspecified), the GI50 in assay [1] is 2.3 µM; in [2] it was 4.77 µM; in assay [3], 5.07 µM; in [4], 3.1 µM; in assay [5], 2.65 µM; in [6], 2.64 µM. In addition, the GI50 in assay [7] is 1.96 µM; in [8], 6.63 µM; in [9], 1.79 µM; in [10], 0.628 µM. In addition, the TGI in assay [1] is 12.5 µM; in [2], 18.8 µM; in assay [3], 32.8 µM; in assay [4], 16.7 µM; in assay [5], over 100 µM; in [6] it was 9.34 µM. In addition, the TGI is over 100 µM in [7], 53.9 µM in assay [8], 5.83 µM in [9] and 16.4 µM in assay [10].

Consider `CC(=O)[C@@]1(O)CC[C@H]2[C@@H]3C[C@H](C)C4=CC(=O)CC[C@]4(C)[C@H]3[C@@H](O)C[C@@]21C`, for which the TGI in [1], in assay [2], in assay [3], in [4], in [5] and in [6] was over 100 µM throughout. The TGI in assay [7], in assay [8], in assay [9] and in assay [10] was over 100 µM in each case.

Regarding `CCOC(=O)c1[nH]c(Br)c(-c2ccc(Br)cc2)c1Br`, the GI50 in assay [1] is 0.362 µM; in assay [3], 2.66 µM; in assay [5] it was 0.445 µM; in [6], 0.0997 µM; in [7], 0.929 µM; in assay [8], 0.407 µM. Besides, the GI50 in assay [10] is 0.193 µM. Moreover, the TGI was 17.9 µM in assay [2]; 65.7 µM in [3]; 13.2 µM in assay [4]; 1.92 µM and 10.6 µM in [5]; 0.546 µM and 0.289 µM in assay [6]; 3.63 µM and 8.45 µM in [7]. In addition, the TGI in assay [9] turned out to be 2.53 µM; in assay [10], 1.12 µM.

For `Cc1ccccc1N=Nc1ccc(NC(=O)c2ccnn2C)c(C)c1`, the GI50 in [1] was 97.2 µM; in [2] it was 32.4 µM; in assay [3] it was 9.9 µM; in [4], 22.1 µM; in assay [5], 5.99 µM; in assay [6] it was 54.9 µM. In addition, the GI50 in assay [7] is 23.9 µM; in [8], 63.7 µM; in assay [9] it was 28.6 µM. The TGI in [1], in assay [2], in assay [3], in assay [4], in [5] and in assay [6] was over 100 µM throughout. Further, the TGI in assay [7], in [8] and in [9] was over 100 µM throughout.

Consider `COc1ccc(/C=C/C(=O)c2ccc(SC)cc2)cc1OC`, for which the GI50 in assay [1] was 12.7 µM; in assay [2] it was 3.83 µM; in assay [3], 37.2 µM; in assay [4], 16.6 µM; in [5], 2.65 µM; in [6] it was 3.44 µM. In addition, the GI50 in [7] was 11.7 µM; in assay [8], 10.9 µM; in assay [9], 19.4 µM; in assay [10] it was 4.09 µM. Also, the TGI in assay [1] was 27.1 µM; in [2] it was 14.2 µM; in assay [3], over 100 µM; in assay [4], 99.3 µM; in assay [5], 10.1 µM; in assay [6] it was 13.4 µM. Also, the TGI was 27.6 µM in assay [7], 27.3 µM in assay [8], 42.6 µM in assay [9] and 33.8 µM in [10].

With `C=C1C(=O)O[C@H]2[C@H]1CC/C(Cn1cc(-c3cc(C(F)(F)F)cc(C(F)(F)F)c3)nn1)=C\CC[C@@]1(C)O[C@@H]21`, the GI50 is 0.344 µM in assay [1]; 0.357 µM in [2]; 0.33 µM in [3]; 1.03 µM in assay [4]; 0.153 µM in [5]; 0.743 µM in [6]. Also, the results for the GI50 in assay [7], in [9] and in [10] were 0.16 µM, 0.348 µM and 0.238 µM, respectively. Further, the TGI in assay [1] came out at 1.38 µM; in assay [2], 1.55 µM; in assay [3], 1.62 µM; in assay [4], 4.23 µM; in assay [5], 0.312 µM; in [6] it was 2.08 µM. Besides, the TGI came to 0.325 µM in assay [7], 1.49 µM in assay [9] and 0.601 µM in assay [10].

For the molecule `Cc1ccc(/C=C2/SC(Nc3nc(-c4csc(NC5=NC(=O)/C(=C\c6ccc(C)cc6)S5)n4)cs3)=NC2=O)cc1`, the GI50 in assay [1] is 1.95 µM; in assay [2], 1.31 µM; in assay [3] it was 35.3 µM; in assay [4], 21.9 µM; in assay [8], 14.3 µM; in [9], over 50 µM. In assay [10], the GI50 is 1.91 µM. Also, the TGI in assay [1] was 13.6 µM; in assay [2] it was 7.74 µM; in [3], over 50 µM; in assay [4], over 50 µM; in assay [8], over 50 µM; in assay [9], over 50 µM. In addition, the TGI in [10] was over 50 µM.

For the molecule `Cc1ccc(-n2c3c(c4c(CN(C)C)c(O)ccc42)CCc2ccccc2C3=O)cc1`, the GI50 in assay [1] was 17 µM; in [2] it was 16.1 µM; in [3] it was over 100 µM; in assay [4], 21.3 µM; in [5], 14.4 µM; in assay [6], 15.2 µM. Moreover, the GI50 was 16.3 µM in [7], 14.5 µM in [8], 19.9 µM in assay [9] and 10.2 µM in [10]. Moreover, the TGI was 30.9 µM in assay [1]; 30.2 µM in assay [2]; over 100 µM in [3]; 57.7 µM in assay [4]; 27.8 µM in assay [5]; 30.4 µM in assay [6]. Moreover, the TGI in assay [7] was determined as 36 µM; in [8], 34.7 µM; in [9] it was 44.5 µM; in assay [10], 25.9 µM.

On to `COc1ccc2c(=O)c3ccoc3n(CC=C(C)C)c2c1`, for which the TGI in assay [1], in [2], in assay [3], in assay [4], in assay [5] and in [6] was over 100 µM throughout. Further, the TGI is 76.4 µM in assay [8], over 100 µM in [9] and over 100 µM in assay [10].

Regarding `NC(N)=N/N=C\c1cccc(OCc2ccccc2)c1`, the GI50 was 1.67 µM in assay [1]; 1.55 µM in [3]; 9.12 µM in assay [4]; 1.84 µM in [5]; 1.97 µM in assay [6]; 4.29 µM in assay [7]. For the same molecule, the values for the GI50 in assay [8], in [9] and in assay [10] were 3.85 µM, 3.31 µM and 3.87 µM, respectively. Moreover, the TGI in [1] amounted to 3.45 µM; in assay [3] it was 3.99 µM; in assay [4] it was 28.7 µM; in [5], 3.96 µM; in assay [6], 4.56 µM; in [7], 18.5 µM. The TGI worked out at 22.2 µM in assay [8], 13 µM in [9] and 16.1 µM in assay [10].

Regarding `COC(=O)C1=C(C(=O)ON)C2C=CC1(C(Cc1ccccc1)Nc1ccccc1)O2` (stereo unspecified), the GI50 in assay [1] is 2.24 µM; in assay [3], 1.46 µM; in [4] it was 25.3 µM; in assay [5], 1.77 µM; in assay [6], 1.92 µM; in [7] it was 1.63 µM. In addition, the GI50 in [8] was 14.7 µM; in [9], 11.6 µM. Moreover, the TGI is 6.66 µM in assay [1]; 3.25 µM in assay [3]; over 100 µM in assay [4]; 3.24 µM in [5]; 3.86 µM in assay [6]; 2.99 µM in assay [7]. Further, the figures for the TGI in assay [8] and in assay [9] were 36.2 µM and 24.4 µM, respectively.

`O=C(CNc1ccc2c(c1)C(=O)c1ccccc1C2=O)Nc1ccc2c(c1)C(=O)c1ccccc1C2=O`: the GI50 in assay [1] is 0.631 µM; in assay [2] it was 0.712 µM; in assay [3], 0.604 µM; in assay [4], 2.29 µM; in [5], 0.24 µM; in [6] it was 0.85 µM. For the same molecule, the GI50 in assay [7] is 1.58 µM; in assay [8] it was 0.819 µM; in assay [9] it was 0.697 µM. In addition, the TGI in assay [1] was determined as 1.95 µM; in [2] it was 2.04 µM; in [3], 2.32 µM; in [4], 13.2 µM; in assay [5], 0.711 µM; in [6], 2.29 µM. In addition, the values for the TGI in [7], in [8] and in assay [9] were 3.01 µM, 4.68 µM and 2 µM, respectively.

In the case of `N#Cc1nc2c(S(=O)(=O)c3ccccc3)c(N)n(Cc3cccnc3)c2nc1C#N`, the GI50 in assay [1] was 20.7 µM; in assay [3] it was 5.8 µM; in assay [4] it was 1.81 µM; in assay [5] it was 9.13 µM; in assay [6] it was over 100 µM; in assay [7], 80.7 µM. Moreover, the GI50 in assay [8] was 92.5 µM; in [9] it was over 100 µM; in assay [10] it was over 100 µM. Further, the TGI in assay [1] was over 100 µM; in assay [3], 52.1 µM; in assay [4], 5.52 µM; in assay [5], over 100 µM; in assay [6], over 100 µM; in assay [7] it was over 100 µM. Besides, the TGI in assay [8], in assay [9] and in [10] was over 100 µM in each case.

Consider `O=C1c2cc3c(cc2-c2c1c1ccc(Cl)cc1c(=O)n2CCCNCCO)OCO3`, for which the GI50 in [1] is 0.0427 µM; in [2], 0.0574 µM; in [4] it was 1.73 µM; in assay [5] it was 0.104 µM; in assay [6], 1.03 µM; in assay [7], 0.0383 µM. Besides, the results for the GI50 in [8], in assay [9] and in assay [10] were 0.0585 µM, 1.97 µM and 0.108 µM, respectively. Further, the TGI in assay [1] was 1.6 µM; in assay [2], 1.67 µM; in [4], 4 µM; in assay [5] it was 0.588 µM; in [6], 2.49 µM; in assay [7], 1.44 µM. Moreover, the TGI in assay [8] came to 1.9 µM; in assay [9], 3.54 µM; in assay [10], 0.355 µM.
